According to ChEMBL document CHEMBL1150453, “Novel catalytic activity of immobilized spores under reduced water activity” (1997):

Legend:
Assay type in all cases: functional
Aspergillus ochraceus [1] = assay: Compound was tested for transformation of progesterone by Dehydrated immobilized spores of Aspergillus orchraceus TS using the method Ethylacetate
Aspergillus ochraceus [2] = assay: Compound was tested for transformation of progesterone by Dehydrated immobilized spores of Aspergillus orchraceus TS using the method Freeze-thaw
Aspergillus ochraceus [3] = assay: Compound was tested for transformation of progesterone by Dehydrated immobilized spores of Aspergillus orchraceus TS using the method n-Butylacetate
Aspergillus ochraceus [4] = assay: Compound was tested for transformation of progesterone by Dehydrated immobilized spores of Aspergillus orchraceus TS using the method Amylacetate
Aspergillus ochraceus [5] = assay: Compound was tested for transformation of progesterone by immobilized spores of Aspergillus orchraceus TS

## C[C@]12C=CC(=O)C=C1CC[C@@H]1[C@@H]2CC[C@]2(C)C(=O)CC[C@@H]12 [ANDROSTENEDONE]
Aspergillus ochraceus [1]
  Activity: 22.2 uM (g of spores)-1
Aspergillus ochraceus [2]
  Activity: 14.4 uM (g of spores)-1
Aspergillus ochraceus [3]
  Activity: 15.8 uM (g of spores)-1
Aspergillus ochraceus [4]
  Activity: 16.1 uM (g of spores)-1

## CC(=O)OC1CCC2C3CCC4=CC(=O)CCC4(C)C3CCC12C (stereo unspecified)
Aspergillus ochraceus [2]
  Activity: 5 uM (g of spores)-1

## C[C@]12CCC(=O)C[C@@H]1CC[C@@H]1[C@@H]2CC[C@]2(C)[C@@H](O)CC[C@@H]12 [STANOLONE]
Aspergillus ochraceus [1]
  Activity: 4.2 uM (g of spores)-1
Aspergillus ochraceus [2]
  Activity: 5.8 uM (g of spores)-1
Aspergillus ochraceus [3]
  Activity: 2.7 uM (g of spores)-1
Aspergillus ochraceus [4]
  Activity: 2.9 uM (g of spores)-1

## C[C@]12CC[C@H]3[C@@H](CCC4=CC(=O)CC[C@@]43C)[C@@H]1CC[C@@H]2O [TESTOSTERONE]
Aspergillus ochraceus [1]
  Activity: 3.9 uM (g of spores)-1
Aspergillus ochraceus [2]
  Activity: 5.5 uM (g of spores)-1
Aspergillus ochraceus [3]
  Activity: 2.6 uM (g of spores)-1
Aspergillus ochraceus [4]
  Activity: 2.7 uM (g of spores)-1

## CC(=O)C1CCC2C3CCC4=CC(=O)C=CC4(C)C3CCC12C (stereo unspecified)
Aspergillus ochraceus [1]
  Activity: 23.6 uM (g of spores)-1
Aspergillus ochraceus [2]
  Activity: 7.6 uM (g of spores)-1
Aspergillus ochraceus [3]
  Activity: 13.8 uM (g of spores)-1
Aspergillus ochraceus [4]
  Activity: 16.1 uM (g of spores)-1

## CC(=O)C1CCC2C3CCC4=CC(=O)CCC4(C)C3[C@@H](O)CC12C (stereo partly specified)
Aspergillus ochraceus [2]
  Activity: 14 uM (g of spores)-1
Aspergillus ochraceus [5]
  Activity: 27.2 uM (g of spores)-1

## CC(=O)[C@@]1(O)CC[C@H]2[C@@H]3CCC4=CC(=O)CC[C@]4(C)[C@H]3CC[C@@]21C [HYDROXYPROGESTERONE]
Aspergillus ochraceus [1]
  Activity: 20.8 uM (g of spores)-1
Aspergillus ochraceus [3]
  Activity: 12.2 uM (g of spores)-1
Aspergillus ochraceus [4]
  Activity: 13.8 uM (g of spores)-1

## C[C@]12CCC(=O)C=C1CC[C@@H]1[C@@H]2CC[C@]2(C)C(=O)CC[C@@H]12 [ANDROSTENEDIONE]
Aspergillus ochraceus [1]
  Activity: 58.7 uM (g of spores)-1
Aspergillus ochraceus [2]
  Activity: 14.7 uM (g of spores)-1
Aspergillus ochraceus [3]
  Activity: 40.4 uM (g of spores)-1
Aspergillus ochraceus [4]
  Activity: 42.6 uM (g of spores)-1
